Legend:
Experiment in all cases: Bliss excess, mean over the matrix (fraction); higher = more synergy
[1] = tested on: CAL-148 (Breast Carcinoma)
Procedure, shortened: (§1)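 After 24 hours at 37°C and 5% CO2 in 1536-well plates, cells in DMEM/F12 or RPMI plus 10% FBS received two-drug dose matrices for 72 hours. Viability came from CellTiter-Glo 2.0 luminescence and was scaled as inhibition, anchored at 0 by vehicle wells and at 1 by blank wells. Combination Emax is taken as the second-highest inhibition in the matrix, and Bliss excess as the observed combination effect less EA + EB − EA·EB, with EA and EB the single-agent effects.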

[2] = tested on: COLO-205 (Colorectal Carcinoma)
Procedure, shortened: as §1

[3] = tested on: DoTc2-4510 (Cervical Carcinoma)
Procedure, shortened: as §1

[4] = tested on: EC-GI-10 (Esophageal Squamous Cell Carcinoma)
Procedure, shortened: as §1

[5] = tested on: HCC-78 (Lung Adenocarcinoma)
Procedure, shortened: as §1

[6] = tested on: HCC1806 (Breast Carcinoma)
Procedure, shortened: as §1

[7] = tested on: HO-1-N-1 (Oral Cavity Carcinoma)
Procedure, shortened: as §1

HOS (Osteosarcoma) = tested on: HOS (Osteosarcoma)
Procedure, shortened: as §1

[8] = tested on: HT-1376 (Bladder Carcinoma)
Procedure, shortened: as §1

[9] = tested on: Hs-578-T (Breast Carcinoma)
Procedure, shortened: as §1

[10] = tested on: KP-1N (Pancreatic Carcinoma)
Procedure, shortened: as §1

[11] = tested on: KURAMOCHI (Ovarian Carcinoma)
Procedure, shortened: as §1

[12] = tested on: KYSE-520 (Esophageal Squamous Cell Carcinoma)
Procedure, shortened: as §1

[13] = tested on: LNCaP-Clone-FGC (Prostate Carcinoma)
Procedure, shortened: as §1

[14] = tested on: LS-180 (Colorectal Carcinoma)
Procedure, shortened: as §1

NB10 (Neuroblastoma) = tested on: NB10 (Neuroblastoma)
Procedure, shortened: as §1

[15] = tested on: NCI-H82 (Small Cell Lung Carcinoma)
Procedure, shortened: as §1

[16] = tested on: OVCA420 (Ovarian Carcinoma)
Procedure, shortened: as §1

[17] = tested on: RO82-W-1 (Thyroid Gland Carcinoma)
Procedure, shortened: as §1

[18] = tested on: TCCSUP (Bladder Carcinoma)
Procedure, shortened: as §1

| Compound | Bliss excess [1] | Bliss excess [2] | Bliss excess [3] | Bliss excess [4] | Bliss excess [5] | Bliss excess [6] | Bliss excess [7] | Bliss excess (HOS (Osteosarcoma)) | Bliss excess [8] | Bliss excess [9] | Bliss excess [10] | Bliss excess [11] | Bliss excess [12] | Bliss excess [13] | Bliss excess [14] | Bliss excess (NB10 (Neuroblastoma)) | Bliss excess [15] | Bliss excess [16] | Bliss excess [17] | Bliss excess [18] |
| --- | --- | --- | --- | --- | --- | --- | --- | --- | --- | --- | --- | --- | --- | --- | --- | --- | --- | --- | --- | --- |
| CN(CCO)CC[C@H](CSc1ccccc1)Nc1ccc(S(=O)(=O)NC(=O)c2ccc(N3CCC([C@@H](O)c4ccccc4-c4ccc(Cl)cc4)CC3)cc2)cc1S(=O)(=O)C(F)(F)F [AZD4320] + C1CN(CCC1(C(=O)N[C@@H](CCO)C2=CC=C(C=C2)Cl)N)C3=NC=NC4=C3C=CN4 [Capivasertib] (first compound max 1 µM, 7x7, partner max 3 µM) | 0.0346 | -0.0031 | 0.0501 | 0.0003 | -0.034 | -0.0078 | -0.0187 | -0.0467 | -0.0959 | -0.0198 | -0.0389 | -0.0393 | -0.0696 | -0.0239 | -0.0389 | -0.0288 | 0.0177 | -0.0601 | -0.0513 | -0.0568 |
| CN(CCO)CC[C@H](CSc1ccccc1)Nc1ccc(S(=O)(=O)NC(=O)c2ccc(N3CCC([C@@H](O)c4ccccc4-c4ccc(Cl)cc4)CC3)cc2)cc1S(=O)(=O)C(F)(F)F [AZD4320] + C=CCn1c(=O)c2cnc(Nc3ccc(N4CCN(C)CC4)cc3)nc2n1-c1cccc(C(C)(C)O)n1 [AZD1775] (first compound max 1 µM, partner max 1 µM) | -0.0033 | 0.0243 | 0.0205 | -0.0597 | -0.0072 | 0.0043 | -0.0023 | 0.0337 | -0.0588 | 0.022 | -0.0325 | 0.0419 | -0.0172 | -0.0222 | 0.0046 | 0.0304 | 0.0113 | -0.0291 | -0.0364 | 0.0373 |
| CN(CCO)CC[C@H](CSc1ccccc1)Nc1ccc(S(=O)(=O)NC(=O)c2ccc(N3CCC([C@@H](O)c4ccccc4-c4ccc(Cl)cc4)CC3)cc2)cc1S(=O)(=O)C(F)(F)F [AZD4320] + CCN(CCO)CCCOc1ccc2c(Nc3cc(CC(=O)Nc4cccc(F)c4)[nH]n3)ncnc2c1 [AZD2811] (first compound max 1 µM, 7x7, partner max 1 µM) | -0.0027 | -0.0154 | 0.114 | 0.0532 | -0.0361 | -0.0127 | -0.0255 | -0.0288 | 0.026 | 0.183 | -0.0317 | 0.0224 | -0.0505 | -0.0105 | -0.0044 | -0.0097 | 0.0891 | -0.0352 | 0.0032 | -0.0194 |
| CN(CCO)CC[C@H](CSc1ccccc1)Nc1ccc(S(=O)(=O)NC(=O)c2ccc(N3CCC([C@@H](O)c4ccccc4-c4ccc(Cl)cc4)CC3)cc2)cc1S(=O)(=O)C(F)(F)F [AZD4320] + CN(C)CCCOc1ccc(-c2ccc3ncc4c(c3c2)n(C2CCOCC2)c(=O)n4C)cn1 [AZD0156] (first compound max 1 µM, 7x7, partner max 1 µM) | 0.0183 | -0.054 | -0.12 | -0.0333 | -0.033 | 0.0142 | -0.0011 | -0.0317 | -0.03 | -0.0178 | -0.0481 | -0.0367 | -0.051 | -0.089 | -0.0209 | -0.0056 | 0.012 | -0.0206 | -0.0258 | -0.0227 |
| CN(CCO)CC[C@H](CSc1ccccc1)Nc1ccc(S(=O)(=O)NC(=O)c2ccc(N3CCC([C@@H](O)c4ccccc4-c4ccc(Cl)cc4)CC3)cc2)cc1S(=O)(=O)C(F)(F)F [AZD4320] + C[C@@H]1COCCN1C2=NC(=NC(=C2)C3(CC3)[S@](=N)(=O)C)C4=C5C=CNC5=NC=C4 [AZD6738] (first compound max 1 µM, 7x7, partner max 10 µM) | -0.0231 | -0.0575 | -0.0202 | -0.0341 | -0.0564 | 0.0208 | 0.026 | 0.0111 | 0.0078 | -0.136 | -0.0135 | 0.0158 | -0.0026 | -0.0328 | -0.0306 | -0.0515 | -0.0251 | 0.006 | -0.0025 | 0.009 |
| CN(CCO)CC[C@H](CSc1ccccc1)Nc1ccc(S(=O)(=O)NC(=O)c2ccc(N3CCC([C@@H](O)c4ccccc4-c4ccc(Cl)cc4)CC3)cc2)cc1S(=O)(=O)C(F)(F)F [AZD4320] + C[C@@H](Nc1cc(F)cc(F)c1)c1cc(C(=O)N(C)C)cc2c(=O)cc(N3CCOCC3)oc12 [AZD8186] (first compound max 1 µM, 7x7, partner max 3 µM) | -0.0054 | -0.0302 | 0.0252 | 0.0191 | 0.003 | 0.0033 | 0.0421 | 0.0607 | -0.0224 | -0.0314 | 0.0059 | 0.0147 | -0.0712 | -0.0005 | -0.0535 | -0.0357 | 0.0359 | 0.002 | -0.0581 | -0.0348 |
| CN(CCO)CC[C@H](CSc1ccccc1)Nc1ccc(S(=O)(=O)NC(=O)c2ccc(N3CCC([C@@H](O)c4ccccc4-c4ccc(Cl)cc4)CC3)cc2)cc1S(=O)(=O)C(F)(F)F [AZD4320] + Cc1cc2ncnn2cc1Nc1ncc2c(n1)n(C1CCOCC1)c(=O)n2C [AZD7648] (first compound max 1 µM, 7x7, partner max 10 µM) | -0.0011 | -0.0132 | -0.0144 | -0.0397 | -0.0227 | -0.058 | -0.0407 | -0.0225 | -0.17 | 0.0165 | -0.0588 | -0.0239 | -0.0365 | -0.0622 | -0.0458 | -0.0281 | 0.012 | -0.0436 | -0.0613 | -0.0325 |
| CN(CCO)CC[C@H](CSc1ccccc1)Nc1ccc(S(=O)(=O)NC(=O)c2ccc(N3CCC([C@@H](O)c4ccccc4-c4ccc(Cl)cc4)CC3)cc2)cc1S(=O)(=O)C(F)(F)F [AZD4320] + Cn1cnc2c(F)c(Nc3ccc(Br)cc3Cl)c(C(=O)NOCCO)cc21 [Selumetinib] (first compound max 1 µM, 7x7, partner max 3 µM) | -0.0201 | 0.026 | -0.021 | 0.0802 | 0.0491 | 0.0605 | -0.0533 | 0.0245 | 0.0297 | -0.0492 | -0.0277 | 0.0636 | 0.0306 | 0.0009 | 0.0159 | 0 | -0.0009 | 0.0225 | -0.0139 | 0.0157 |
| COc1nnc2ccc(N3CCC(c4ccc(OCCN5CCN(C)C(=O)[C@H]5C)cc4)CC3)nn12 [AZD5153] + C=CCn1c(=O)c2cnc(Nc3ccc(N4CCN(C)CC4)cc3)nc2n1-c1cccc(C(C)(C)O)n1 [AZD1775] (first compound max 1 µM, partner max 1 µM) | -0.0117 | -0.0529 | -0.018 | -0.0813 | -0.055 | -0.0704 | -0.0551 | -0.0504 | 0.0053 | -0.0661 | 0.0464 | -0.0373 | -0.0399 | -0.0733 | -0.049 | -0.0727 | -0.0656 | -0.0589 | 0.038 | -0.0497 |
| COc1nnc2ccc(N3CCC(c4ccc(OCCN5CCN(C)C(=O)[C@H]5C)cc4)CC3)nn12 [AZD5153] + CC1(C)CCC(CN2CCN(c3ccc(C(=O)NS(=O)(=O)c4ccc(NCC5CCOCC5)c([N+](=O)[O-])c4)c(Oc4cnc5[nH]ccc5c4)c3)CC2)=C(c2ccc(Cl)cc2)C1 [Venetoclax] (first compound max 1 µM, 7x7, partner max 1 µM) | -0.0682 | -0.0745 | -0.0405 | -0.118 | -0.0448 | -0.0513 | -0.095 | -0.0508 | -0.0305 | -0.0614 | -0.0714 | -0.0471 | -0.0444 | -0.0468 | -0.0614 | -0.0566 | -0.103 | -0.0527 | -0.0712 | -0.0768 |
| COc1nnc2ccc(N3CCC(c4ccc(OCCN5CCN(C)C(=O)[C@H]5C)cc4)CC3)nn12 [AZD5153] + CCN(CCO)CCCOc1ccc2c(Nc3cc(CC(=O)Nc4cccc(F)c4)[nH]n3)ncnc2c1 [AZD2811] (first compound max 1 µM, 7x7, partner max 1 µM) | -0.0361 | -0.0595 | -0.0067 | -0.0142 | -0.0314 | -0.042 | -0.0014 | -0.0093 | -0.0381 | -0.0345 | -0.0273 | -0.0149 | -0.0709 | -0.0081 | -0.111 | -0.0289 | -0.064 | -0.0547 | -0.0483 | -0.0398 |
| COc1nnc2ccc(N3CCC(c4ccc(OCCN5CCN(C)C(=O)[C@H]5C)cc4)CC3)nn12 [AZD5153] + C[C@@H]1COCCN1C2=NC(=NC(=C2)C3(CC3)[S@](=N)(=O)C)C4=C5C=CNC5=NC=C4 [AZD6738] (first compound max 1 µM, 7x7, partner max 10 µM) | 0.0315 | -0.0115 | 0.0412 | 0.0203 | -0.0235 | 0.0113 | 0.01 | -0.0413 | -0.0006 | -0.0231 | 0.131 | 0.0157 | -0.0009 | -0.0318 | -0.0165 | 0.0214 | -0.0906 | -0.0057 | 0.0259 | -0.0327 |
| COc1nnc2ccc(N3CCC(c4ccc(OCCN5CCN(C)C(=O)[C@H]5C)cc4)CC3)nn12 [AZD5153] + Cc1c2c(nn1C)CSCc1cc(n(C)n1)CSc1cc(c3ccccc3c1)OCCCc1c(C(=O)O)n(C)c3c-2c(Cl)ccc13 [AZD5991] (first compound max 1 µM, 7x7, partner max 1 µM) | 0.0117 | -0.0303 | -0.0358 | 0.0527 | -0.0184 | -0.0137 | 0.0068 | 0.0009 | -0.0135 | -0.0338 | -0.0176 | 0.0332 | -0.0457 | -0.0722 | -0.0279 | -0.0446 | -0.0659 | -0.0933 | -0.0181 | -0.0234 |
